From PubChem BioAssay (NCI)
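Five concentrations, 48 hours, 96-well plates. The concentration for 50% growth inhibition is given as GI50. At the TGI there is no net growth.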

Columns and labels:
Experiment in all cases: NCI anticancer screen, dose series, 48 h
DU-145 prostate = test system: DU-145 prostate
MCF7 breast = test system: MCF7 breast
LOX IMVI melanoma = test system: LOX IMVI melanoma
SR leukemia = test system: SR leukemia
UO-31 renal = test system: UO-31 renal
A498 renal = test system: A498 renal
COLO 205 colon = test system: COLO 205 colon
OVCAR-5 ovarian = test system: OVCAR-5 ovarian
HCT-116 colon = test system: HCT-116 colon
HOP-92 NSCLC = test system: HOP-92 NSCLC

Structure (SMILES) | GI50 (DU-145 prostate) [µM] | TGI (DU-145 prostate) [µM] | GI50 (MCF7 breast) [µM] | TGI (MCF7 breast) [µM] | GI50 (LOX IMVI melanoma) [µM] | TGI (LOX IMVI melanoma) [µM] | GI50 (SR leukemia) [µM] | TGI (SR leukemia) [µM] | GI50 (UO-31 renal) [µM] | TGI (UO-31 renal) [µM] | GI50 (A498 renal) [µM] | TGI (A498 renal) [µM] | GI50 (COLO 205 colon) [µM] | TGI (COLO 205 colon) [µM] | GI50 (OVCAR-5 ovarian) [µM] | TGI (OVCAR-5 ovarian) [µM] | GI50 (HCT-116 colon) [µM] | TGI (HCT-116 colon) [µM] | TGI (HOP-92 NSCLC) [µM] | GI50 (HOP-92 NSCLC) [µM]
COc1cc(C2SCC(=O)N2c2ncc(C)s2)cc(OC)c1OC (configuration not stated) | 19.6 | > 50 | > 50 | > 50 | 31.2 | > 50 | 3.06 | > 50 | > 50 | > 50 | 0.366 | > 50 | 17.5 | > 50 | > 50 | > 50 | 27.5 | > 50 |  | 
O=c1ncc(F)cn1C1OC(CO)C(O)C1O (configuration not stated) |  |  |  |  |  | > 59.8 |  | > 46.8 |  | > 100 |  | > 100 |  | > 37.9 |  | > 100 |  | > 100 | > 100 | 
CN(C)CCNC(=O)c1cccc(N(C)C(=O)c2ccccc2)c1[N+](=O)[O-] |  | > 100 |  | > 100 |  |  |  | > 100 |  | > 100 |  | > 100 |  | > 10 |  | > 100 |  | > 100 |  | 
CC(C)([NH-])CO.CC(C)([NH-])CO.[Cl][Cd][Cl] |  |  |  |  |  |  | 20 | 44.5 | 35.4 | > 100 |  |  | 26.1 | 55.8 | 16.8 | 30.5 | 18.8 | 33.8 | 34 | 19.3
Cn1cnc([N+](=O)[O-])c1Sc1nccn1-c1cccc2ccccc12 |  |  |  |  |  | 32.4 |  | 50.5 |  | > 100 |  | > 100 |  | 30.3 |  | 76.1 |  | 60.3 | 54.9 | 
C#Cc1c(/C=C/C(=O)OCC)ccc2ccccc12 | 28.9 | 75.6 | 24 | > 100 | 13.1 | 27.4 | 3.94 | 17 | 12.7 | 26.6 | 15.2 | 37.8 | 13.8 | 33.5 | 28.9 | > 100 | 26.2 | 91.6 |  | 
C/C(=N\NS(=O)(=O)c1ccc(C)cc1)P(=O)(O)O |  | > 100 |  | > 100 |  | > 100 |  |  |  | > 100 |  | > 100 |  | > 100 |  | > 100 |  | > 100 | > 100 | 
Cc1ccc(S(=O)(=O)NC2(C=O)CCCC3CCCCC32)cc1 (configuration not stated) |  |  |  |  |  |  |  | > 100 |  | > 100 |  | > 100 |  | > 100 |  |  |  | > 100 |  | 
C/C(CC(=O)Nc1ccc(C)c(C)c1)=N\NC(N)=O |  |  |  |  |  | > 100 |  |  |  | > 100 |  | > 100 |  | > 100 |  | > 100 |  | > 100 | > 100 | 
O=C(c1ccccc1)C1OC1c1ccc([N+](=O)[O-])cc1 (configuration not stated) |  |  | 3.16 | > 100 | 1.81 | 10.8 |  |  | 5.94 | 93.2 | 18.8 | 53.1 | 12.9 | 30.4 | 19.6 | 56.9 | 3.17 | 12.6 |  | 
COc1c2ccoc2c(OC)c2oc(=O)ccc12 |  | > 100 |  | > 100 |  | > 100 |  | > 100 |  | > 100 |  | > 100 |  | > 100 |  | > 100 |  | > 100 |  | 
O=[P+](O)c1ccsc1 |  |  |  |  |  | > 100 |  |  |  | > 100 |  | > 100 |  | > 100 |  |  |  | > 100 | > 100 | 
CC(Nc1ccc(S(=O)(=O)N=C(N)N)cc1)c1c2ccccc2nc2ccccc12 (configuration not stated) |  |  |  |  |  | > 100 |  | 65.7 |  | 65.6 |  |  |  | > 100 |  | > 100 |  | > 10 | 55.5 | 
COC(=O)C(C(=O)C(=O)Nc1ccc([N+](=O)[O-])cc1[N+](=O)[O-])c1nc2ccc(Cl)cc2[nH]c1=O (configuration not stated) |  |  |  |  |  | > 100 |  |  |  | > 100 |  | > 100 |  | > 100 |  | > 100 |  | > 100 | > 100 | 
Cn1c2c(c3ccc([N+](=O)[O-])cc3c1=O)C(=O)c1ccccc1-2 | > 100 | > 100 | > 100 | > 100 | > 100 | > 100 |  |  | > 100 | > 100 | > 100 | > 100 | > 100 | > 100 | > 100 | > 100 | > 100 | > 100 | > 100 | > 100
NCCCCCCCn1c2c(c3ccccc3c1=O)C(=O)c1ccccc1-2 | 0.915 | 2.12 | 1.1 | 2.71 | 1.33 | 2.76 |  |  | 1.29 | 2.73 | 3.26 | 11.8 | 2.07 | 5.15 | 1.7 | 3.97 | 1.42 | 2.81 | 2.44 | 0.808
C=C1CCC2C3(C)COC(c4ccccc4)OC3CCC2(C)C1/C=C/C1=CCOC1=O (configuration not stated) | 3.77 | 12.8 | 1.96 | 7.59 | 1.7 | 4.25 | 1.27 | 4.06 | 4.88 | 18.2 | 17.9 | 46 | 4.09 | 16.8 | 9.58 | 22 | 1.95 | 5.64 |  | 
O=c1c(Br)cc2nc3ccccc3sc-2c1Br |  |  |  |  |  | > 100 |  | > 100 |  | > 100 |  | > 100 |  | > 91 |  | > 100 |  | > 100 | > 100 | 
C=CC(=O)Nc1cc(C)ccc1Nc1nc(Nc2cc(OC)ncc2C)ncc1C(F)(F)F | 0.996 | 12.3 | 0.864 | > 32.8 | 0.142 | 1.03 |  |  | 0.214 | 2.27 | 0.157 | 0.598 | 0.0555 | 1.48 | 0.227 | 2.14 | 0.256 | 1.31 | 0.981 | 0.188
O=C(O)CCC(N=Cc1nc(-c2ccccc2)oc1O)C(=O)O (configuration not stated) |  |  |  |  |  |  |  | > 100 |  | > 100 |  | > 100 |  | > 100 |  | > 100 |  | > 100 |  | 
